Experimental data from patent US10039779B2, “Combination formulation of two antiviral compounds” (priority 2013, dated 2018).

Experiments:
[1] = pH-solubility profile and solubility in simulated intestinal media; type: physicochemical
Experimental: Excess solid ledipasvir was added to a range of pH-adjusted aqueous solutions (titrated with HCl or NaOH) and stirred for 48 hours at room temperature. The suspensions were then filtered through regenerated cellulose syringe filters. The pH value of the supernatant was measured, and the supernatant was diluted as appropriate with 50:50 H2O+0.1% TFA:ACN and assayed for ledipasvir content by the HPLC-UV method.
Solubility of ledipasvir amorphous free base was assessed in three types of simulated intestinal fluids at pH 6.5 or pH 5.0; and simulated intestinal bile salt and lecithin mixture (SIBLM), pH 6.4. Excess solid ledipasvir was added to the respective SIFs and stirred for 48 hours at room temperature. The resulting suspensions were then filtered through regenerated cellulose syringe filters. The supernatant was diluted as appropriate with 50:50 H2O+0.1% TFA:ACN and assayed for ledipasvir content by the HPLC-UV method.

HCV = experiment: Dose selection: antiviral response and Emax PK/PD modeling; type: in vivo, Hepatitis C virus; conditions: for breakthrough (BT) rate: in combination with other therapeutic agents
Experimental: The sofosbuvir dose selected for the tablet formulation is 400 mg once daily. Support for the 400 mg sofosbuvir dose can be derived from Emax PK/PD modeling with early virological and human exposure data which also supports the selection of a 400 mg sofosbuvir dose over others tested.
The mean sofosbuvir major metabolite AUCtau for the 400 mg sofosbuvir dose is associated with approximately 77% of the maximal HCV RNA change from baseline achievable as determined by this model, a value which is on the cusp of the plateau of the exposure-response sigmoidal curve. […] Therefore, given that sofosbuvir exposure with 200 mg tablets appears dose-proportional with single doses up to 1200 mg, doses below 400 mg are expected to yield considerable reductions in the magnitude of HCV RNA change from baseline.
The sofosbuvir dose of 400 mg once daily was associated with higher SVR rates in genotype 1 HCV infected patients as compared to the 200 mg once daily dose when given in conjunction with additional HCV therapeutics for 24 weeks. Safety and tolerability appeared similar across both dose levels. In addition, when sofosbuvir 400 mg once daily plus other HCV therapeutics were given to genotype 2 or 3 HCV infected patients, 100% SVR24 was observed.
The maximum median HCV RNA log 10 reduction was 3 or greater for all cohorts dosed with ≥3 mg of ledipasvir. […] Therefore, 30 mg and 90 mg of ledipasvir were selected as the dose for the formulations described herein.
Therefore, the 90 mg dose of ledipasvir may confer a greater antiviral coverage that prevents viral breakthrough.

[2] = Ledipasvir single-dose PK by concomitant food intake status; type: in vivo; conditions: for CL/F: Ledipasvir 30 mg single dose, N = 8, mean
[3] = PK of Sofosbuvir/Ledipasvir tablets fasted or with meals; conditions: for AUC(0-inf) / AUC(0-t) / Cmax: plasma, po, plasma analyte, n = 29, mean (% CV); for AUC(0-inf): AUCinf; for AUC(0-t): AUClast
[4] = Compatibility/stability of sofosbuvir and ledipasvir:copovidone solid dispersion blend; type: physicochemical; conditions: for Strength / Total Impurity Content: blend pellets, open glass vials
Experimental: The compatibility of sofosbuvir anhydrous crystalline drug substance was evaluated with the ledipasvir:copovidone solid dispersion. A blend of the sofosbuvir and ledipasvir:copovidone (1:1) solid dispersion was prepared at a ratio representative of the final 400 mg sofosbuvir/90 mg ledipasvir tablets. […]

[5] = pH-solubility profile and solubility in simulated intestinal media; type: physicochemical; remark: listed apart in the source
[6] = Pharmacokinetics of sofosbuvir and ledipasvir alone or in combination; type: in vivo; design: AUC(0-inf): concentration or dose not given beside the values; conditions: for AUC(0-inf): plasma
[7] = nonlinear least-square regression fit of pH-solubility profile
[8] = Sofosbuvir/Ledipasvir Tablet, Fasted
[9] = Sofosbuvir/Ledipasvir Tablet, High-Calorie/High-Fat Meal
[10] = Sofosbuvir/Ledipasvir Tablet, Moderate-Fat Meal
[11] = Sofosbuvir + Ledipasvir vs single agent alone
[12] = po, plasma analyte, Ledipasvir alone, n = 17, mean (% CV)

SMILES: COC(=O)N[C@H](C(=O)N1CC2(CC2)C[C@H]1c1ncc(-c2ccc3c(c2)C(F)(F)c2cc(-c4ccc5nc([C@@H]6[C@H]7CC[C@H](C7)N6C(=O)[C@@H](NC(=O)OC)C(C)C)[nH]c5c4)ccc2-3)[nH]1)C(C)C [Ledipasvir, (1-{3-[6-(9,9-difluoro-7-{2-[5-(2-methoxycarbonylamino-3-methyl-butyryl)-5-aza-spiro[2.4]hept-6-yl]-3H-imidazol-4-yl}-9H-fluoren-2-yl)-1H-benzoimidazol-2-yl]-2-aza-bicyclo[2.2.1]heptane-2-carbonyl}-2-methyl-propyl)-carbamic acid methyl ester]
- BCS classification [1]: BCS Class 2
- pKa1 [1, 7]: 5.0
- pKa2 [1, 7]: 4.0
- share of maximal antiviral response (Emax PK/PD model) (HCV; 30 mg dose, genotype 1a HCV infected patients): > 95%
- breakthrough (BT) rate (HCV; 30 mg, 11/33): 33%
- breakthrough (BT) rate (HCV; 90 mg, 9/74): 12%
- AUCinf GLSM Ratio (Fed/Fasted) ([2]; Ledipasvir 30 mg): 55.55%
- AUClast GLSM Ratio (Fed/Fasted) ([2]; Ledipasvir 30 mg): 56.71%
- Cmax GLSM Ratio (Fed/Fasted) ([2]; Ledipasvir 30 mg): 54.90%
- CL/F ([2]; fasted): 17,034.5 mL/h
- CL/F ([2]; fed (high-fat meal)): 26,917.9 mL/h
- decrease each in mean Cmax, AUClast, and AUCinf ([2]; high-fat meal vs fasted, 30 mg): approximately 45%
- decrease in exposure with a high-fat meal relative to fasted state ([2]; ledipasvir alone in a conventional formulation): roughly 2 fold
- % GMR (90% CI) [Moderate-Fat/Fasted] of AUCinf ([3]; Sofosbuvir/Ledipasvir Tablet): 115 (99.4, 134) %
- % GMR (90% CI) [Moderate-Fat/Fasted] of AUClast ([3]; Sofosbuvir/Ledipasvir Tablet): 114 (98.0, 133) %
- % GMR (90% CI) [Moderate-Fat/Fasted] of Cmax ([3]; Sofosbuvir/Ledipasvir Tablet): 109 (93.5, 126) %
- GMR (90% CI) [High-Fat/Fasted] of AUCinf ([3]; Sofosbuvir/Ledipasvir Tablet): 103 (88.5, 119) %
- GMR (90% CI) [High-Fat/Fasted] of AUClast ([3]; Sofosbuvir/Ledipasvir Tablet): 104 (88.8, 121) %
- GMR (90% CI) [High-Fat/Fasted] of Cmax ([3]; Sofosbuvir/Ledipasvir Tablet): 88.2 (75.8, 103) %
- AUC(0-inf) [3, 8]: 10600 ng·h/mL
- AUC(0-inf) [3, 9]: 9220 ng·h/mL
- AUC(0-inf) [3, 10]: 10600 ng·h/mL
- AUC(0-t) [3, 8]: 8600 ng·h/mL
- AUC(0-t) [3, 9]: 7550 ng·h/mL
- AUC(0-t) [3, 10]: 8650 ng·h/mL
- Cmax [3, 8]: 324 ng/mL
- Cmax [3, 9]: 255 ng/mL
- Cmax [3, 10]: 319 ng/mL
- effect of food on pharmacokinetics ([3]; sofosbuvir/ledipasvir composition, fed vs fasted): does not appear to be altered by food
- degradation in blend with the other active ([4]; 40° C./75% RH and 60° C./ambient humidity, two and four weeks): no degradation was observed
- Strength ([4]; 45° C./75% RH, 0 weeks): 98.8%
- Total Impurity Content ([4]; 45° C./75% RH, 0 weeks): 0.0%
- Strength ([4]; 45° C./75% RH, 2 weeks): 96.9%
- Total Impurity Content ([4]; 45° C./75% RH, 2 weeks): 0.0%
- Strength ([4]; 45° C./75% RH, 4 weeks): 97.1%
- Total Impurity Content ([4]; 45° C./75% RH, 4 weeks): 0.0%
- Strength ([4]; 60° C., 0 weeks): 98.8%
- Total Impurity Content ([4]; 60° C., 0 weeks): 0.0%
- Strength ([4]; 60° C., 1 week): 99.2%
- Total Impurity Content ([4]; 60° C., 1 week): 0.0%
- Strength ([4]; 60° C., 2 weeks): 99.6%
- Total Impurity Content ([4]; 60° C., 2 weeks): 0.0%
- Strength ([4]; 60° C., 4 weeks): 98.9%
- Total Impurity Content ([4]; 60° C., 4 weeks): 0.0%
- permeability [5]: high permeability
- % GMR (90% CI) of AUCinf [6, 11]: 95.7 (92.1, 99.5) %
- % GMR (90% CI) of AUClast [6, 11]: 96.5 (89.9, 104) %
- % GMR (90% CI) of Cmax [6, 11]: 95.5 (91.9, 99.1) %
- AUC(0-inf) [6, 12]: 11900 ng·h/mL
- AUC(0-inf) ([6]; po, plasma analyte, Sofosbuvir + Ledipasvir, n = 17, mean (% CV)): 11400 ng·h/mL
- Cmax [6, 12]: 375 ng/mL
